In US20240374570A1, “DRIVING AXON REGENERATION BY NRF2 OVEREXPRESSION AND EDARAVONE APPLICATION” (The Hong Kong University of Science and Technology, priority 2023, published 2024):

Test system: dorsal root ganglion (DRG) neurons
Assay: DRG neurons replating culture, axon growth
Type: cell-based, mice
Conditions: one day treatment, then replated 20 hours under continued treatment, vs DMSO vehicle
Protocol: FIGS. 3A-3B Edaravone promotes axon elongation in DRG replating culture. (FIG. 3A) Representative image of replated DRG neurons treated by the DMSO vehicle control and indicated concentration of edaravone. Scale bar: 400 μm. (FIG. 3B) Quantification of the longest neuron length of the tested concentrations of edaravone. Dots represent the measurement of each neuron.
Primary culture and replating culture of DRG neurons were performed as following protocols. L3-L5 dorsal root ganglia (DRGs) were dissected from adult WT mice and digested in 0.5% collagenase for 90 minutes. Subsequently, the digestion medium was replaced with culture medium (Neurobasal-A supplemented with penicillin-streptomycin and B-27). The digested DRGs were then triturated with a pipette 20-30 times to isolate DRG neurons. The isolated DRG neurons were plated onto a 6-well plate pre-coated with Poly-D-Lysine and laminin. Primary cultured DRG neurons received 1 μM edaravone, 10 μM edaravone or DMSO vehicle treatment for one day. After then, neurons were resuspended and replated to another dish under continue treatment of vehicle/edaravone. The replating culture was terminated with 4% PFA after 20 hours. Tuj1 staining was performed to visualize DRG cell bodies and neurites.
Adult mice dorsal root ganglion (DRG) neurons replating culture was used to investigate the effect of edaravone on axon growth. […]

## CC1=NN(c2ccccc2)C(=O)C1 [edaravone, 5-methyl-2-phenyl-2,4-dihydro-3H-pyrazol-3-one]
1 μM
  axon (neurite) growth, longest neuron length: significant growth-promoting effect
10 μM
  axon (neurite) growth, longest neuron length: significant growth-promoting effect
